Measurements: patent publication US11298431B2, “Method for labeling radioisotope radiolabeling compound and kit comprising the same for labeling radioisotope” (KOREA ATOMIC ENERGY RESEARCH INSTITUTE, priority 2018, dated 2022)

Experiments:
[1] = Storage stability of the radioiodinated aldehyde in the refrigerator; assay type: physicochemical
Text: (§1) For synthesis of ^125I-labeled aldehyde [^125I] 5, specific radioactive analogue 4-iodo-N-(4-oxobutyl) benzamide) 5 was synthesized by coupling of 4-aminobutyraldehyde diethyl acetal with 4-iodobenzoic acid under basic conditions and a subsequent reduction under acidic conditions (Scheme 1). The radioiodination shown in 6 was achieved using [^125I] NaI and chloramines-T as oxidants (Scheme 3). The radioiodination reaction was terminated by adding an aqueous solution of sodium metabisulfite. After HPLC purification of the crude product, [^125I] 5 was obtained with high radiochemical yield (72±6%, n=5). The specific activity was 45 GBq/μmol and the chemical purity was more than 99%. In the HPLC chromatogram of the crude mixture, the main product [^125I] 5 was clearly shown at 22.6 minutes (FIG. 1). Radio-labeling reactions were performed by using various amounts of radioisotopes (100 μCi to 1 mCi), but the radiochemical results were consistent. The radioactive iodine compound [^125I] […] The compound [^125I]

[2] = In vitro stability in various media at 37° C. (radio-HPLC); assay type: in vitro ADME
Text: as §1

- hydrolysis ([1]; compared with active ester-based prosthetic groups (Bolton-Hunter-reagent)): not hydrolyzed
- time found to be stable in the refrigerator ([1]; refrigerator (4° C.)): more than 6 months
- time shown to be stable in medium ([2]; PBS): ≥ 24 h
- time shown to be stable in medium ([2]; mouse serum): ≥ 24 h
- time shown to be stable in medium ([2]; saline): ≥ 24 h
Compound: O=CCCCNC(=O)c1ccc([125I])cc1 [[^125I] 5]
